# US20040076974A1, “Liver necrosis predictive genes” (priority 2002, published 2004)
# Like-named read-outs stand apart in the source and are kept apart here.
# Tested on: Sprague Dawley rats
# Procedure: Sprague Dawley rats Crl:CD from Charles River, Raleigh, N.C. were divided into treated rats that receive a specific concentration of the compound (see Table 1) and. control rats that only received the vehicle in which the compound is mixed (e.g., saline).
# At specified timepoints (6 h, 24 h and 72 h) after administration (intraperitoneal route) of the compound, a set number of rats (usually 3 control and 3 treated) were euthanized and tissues collected. Each, rat was heavily sedated with an overdose of CO2 by inhalation and a maximum amount of blood drawn. Exsanguination of the rat by this drawing of blood kills the rat. The method of collecting the tissues is very important and ensures preserving the quality of the mRNA in the tissues. The body of the rat was then opened up and prosectors rapidly removed the tissues (including) and immediately placed them into liquid nitrogen. […] The organs/tissues were then packaged into well-labeled plastic freezer quality bags and stored at −80 degrees until needed for isolation of the mRNA from a portion of the organ/tissue sample.
# Histopathology scores for each animal (assigned on a compound-dose basis as indicated in Table 1) were entered with gene expression data by using the GeneSpring™ ‘Drawn Gene’ function. Correlations between the histopathology scores and gene expression were conducted with the distance measures listed below:
# Toxicity classifications were entered for training and test set as a parameter column. Toxicity, as defined by observation of necrosis in the at 72 hours after treatment, was entered as a “yes” or “no” for each animal in a compound-dose group. Additionally, a parameter column for random histopathology classification was designated. This was done by randomly assigning the same number of “yes” and “no” calls to the individual animals.
# [1] = Sprague Dawley, rat, in vivo, ip, 50 mg/kg, 72 h
# [2] = Sprague Dawley, rat, in vivo, ip, 200 mg/kg, 72 h
compound,measurement,setting,value
ClC(Cl)Cl [chloroform],Liver Toxicity Necrosis Classification,"rat, in vivo",no
same,Liver Necrosis,"rat, in vivo, ip",no
same,Score (histopathology liver necrosis severity score),"rat, in vivo, ip",1
COc1cccc2c1C(=O)c1c(O)c3c(c(O)c1C2=O)C[C@@](O)(C(=O)CO)C[C@@H]3O[C@H]1C[C@H](N)[C@H](O)[C@H](C)O1 [doxorubicin],Score (histopathology liver necrosis severity score),"Sprague Dawley, rat, in vivo, ip, 12 mg/kg, 72 h",1
same,Liver Toxicity Necrosis Classification,"rat, in vivo",no
same,Liver Necrosis,"rat, in vivo, ip, 12 mg/kg",no
O=C(O)c1cc(-c2ccc(F)cc2F)ccc1O [diflunisal],Score (histopathology liver necrosis severity score),"Sprague Dawley, rat, in vivo, ip, 25 mg/kg, 72 h",1
same,Score (histopathology liver necrosis severity score),"Sprague Dawley, rat, in vivo, ip, 100 mg/kg, 72 h",1
same,Liver Toxicity Necrosis Classification,"rat, in vivo",no
same,Liver Necrosis,"rat, in vivo, ip, 25 mg/kg",no
same,Liver Necrosis,"rat, in vivo, ip, 100 mg/kg",no
NNC(=O)c1ccncc1 [isoniazid],Score (histopathology liver necrosis severity score),[1],1
same,Score (histopathology liver necrosis severity score),[2],1
same,Liver Toxicity Necrosis Classification,"rat, in vivo",no
same,Liver Necrosis,"rat, in vivo, ip, 50 mg/kg",no
same,Liver Necrosis,"rat, in vivo, ip, 200 mg/kg",no
COc1ccc(C[C@H](N)C(=O)N[C@H]2[C@@H](O)[C@H](n3cnc4c(N(C)C)ncnc43)O[C@@H]2CO)cc1 [puromycin],Score (histopathology liver necrosis severity score),"Sprague Dawley, rat, in vivo, ip, 38 mg/kg, 72 h",1
same,Score (histopathology liver necrosis severity score),"Sprague Dawley, rat, in vivo, ip, 150 mg/kg, 72 h",1
same,Liver Toxicity Necrosis Classification,"rat, in vivo",no
same,Liver Necrosis,"rat, in vivo, ip, 38 mg/kg",no
same,Liver Necrosis,"rat, in vivo, ip, 150 mg/kg",no
CCC(=O)O[C@H]1[C@H](O[C@@H]2[C@@H](C)[C@H](O[C@H]3C[C@@](C)(OC)[C@@H](O)[C@H](C)O3)[C@@H](C)C(=O)O[C@H](CC)[C@@](C)(O)[C@H](O)[C@@H](C)C(=O)[C@H](C)C[C@@]2(C)O)O[C@H](C)C[C@@H]1N(C)C [erythromycin estolate],Liver Toxicity Necrosis Classification,"72 h, dose 40",no
same,Liver Toxicity Necrosis Classification,compound-dose group at 72 h; dose 40,no
same,Liver Toxicity Necrosis Classification,compound-dose group at 72 h; dose 160,no
same,Liver Toxicity Necrosis Classification,"dose 40, 72 h",no
same,Liver Toxicity Necrosis Classification,"dose 160, 72 h",no
same,Liver Necrosis,"rat, intraperitoneal, dose 40 mg/kg, 72 hours after treatment",no
same,Score (histopathology liver necrosis severity score),"rat, intraperitoneal, dose 40 mg/kg, 72 hours; 1 = not remarkable, 2 and higher increasing severity",1
same,Liver Necrosis,"rat, intraperitoneal, dose 160 mg/kg, 72 hours after treatment",no
same,Score (histopathology liver necrosis severity score),"rat, intraperitoneal, dose 160 mg/kg, 72 hours; 1 = not remarkable, 2 and higher increasing severity",1
CN1CCN(C2=Nc3cc(Cl)ccc3Nc3ccccc32)CC1 [clozapine],Score (histopathology liver necrosis severity score),"Sprague Dawley, rat, in vivo, ip, 45 mg/kg, 72 h",1
same,Score (histopathology liver necrosis severity score),"Sprague Dawley, rat, in vivo, ip, 180 mg/kg, 72 h",1
same,Liver Toxicity Necrosis Classification,"rat, in vivo",no
same,Liver Necrosis,"rat, in vivo, ip, 45 mg/kg",no
same,Liver Necrosis,"rat, in vivo, ip, 180 mg/kg",no
[Cl][Cd][Cl] [cadmium chloride],Liver Toxicity Necrosis Classification,"72 h; compound-dose group; dose BRB 800, BUS 14, CAD 1, CAR 16",no
same,Liver Toxicity Necrosis Classification,72 h; compound-dose group; dose CAD 2,no
same,Liver Toxicity Necrosis Classification,"compound-dose group at 72 h, dose 1; no = no necrosis observed",no
same,Liver Toxicity Necrosis Classification,"compound-dose group at 72 h, dose 4; yes = necrosis observed",yes
same,Liver Toxicity Necrosis Classification,"compound-dose group at 72 h; BUS 14, CAD 1, CAR 16 (dose codes, Table 1)",no
same,Liver Necrosis,"rat, intraperitoneal, dose 1 mg/kg, 72 hours after treatment",no
same,Score (histopathology liver necrosis severity score),"rat, intraperitoneal, dose 1 mg/kg, 72 hours; 1 = not remarkable, 2 and higher increasing severity",1
same,Liver Necrosis,"rat, intraperitoneal, dose 2 mg/kg, 72 hours after treatment",No
same,Score (histopathology liver necrosis severity score),"rat, intraperitoneal, dose 2 mg/kg, 72 hours; 1 = not remarkable, 2 and higher increasing severity",1
same,Liver Necrosis,"rat, intraperitoneal, dose 4 mg/kg, 72 hours after treatment",Yes
same,Score (histopathology liver necrosis severity score),"rat, intraperitoneal, dose 4 mg/kg, 72 hours; 1 = not remarkable, 2 and higher increasing severity",3
polyethylene glycol,Liver Necrosis,"rat, in vivo, ip",no
CC(=O)N1CCN(c2ccc(OCC3COC(Cn4ccnc4)(c4ccc(Cl)cc4Cl)O3)cc2)CC1 (stereo not drawn) [ketoconazole],Score (histopathology liver necrosis severity score),"Sprague Dawley, rat, in vivo, ip, 20 mg/kg, 72 h",1
same,Score (histopathology liver necrosis severity score),"Sprague Dawley, rat, in vivo, ip, 80 mg/kg, 72 h",1
same,Liver Toxicity Necrosis Classification,"rat, in vivo",no
same,Liver Necrosis,"rat, in vivo, ip, 20 mg/kg",no
same,Liver Necrosis,"rat, in vivo, ip, 80 mg/kg",no
gentamicin,Liver Toxicity Necrosis Classification,at 72 h; dose 38,no
same,Liver Toxicity Necrosis Classification,at 72 h; dose 150,no
same,Liver Toxicity Necrosis Classification,"compound-dose group at 72 h, dose 38",no
same,Liver Toxicity Necrosis Classification,"compound-dose group at 72 h, dose 150",no
same,Liver Toxicity Necrosis Classification,compound-dose group at 72 h; dose 38,no
same,Liver Toxicity Necrosis Classification,compound-dose group at 72 h; dose 150,no
same,Liver Toxicity Necrosis Classification,compound-dosegroup at 72 h; dose 38,no
same,Liver Necrosis,"rat, intraperitoneal, dose 38 mg/kg, 72 hours after treatment",no
same,Score (histopathology liver necrosis severity score),"rat, intraperitoneal, dose 38 mg/kg, 72 hours; 1 = not remarkable, 2 and higher increasing severity",1
same,Liver Necrosis,"rat, intraperitoneal, dose 150 mg/kg, 72 hours after treatment",no
same,Score (histopathology liver necrosis severity score),"rat, intraperitoneal, dose 150 mg/kg, 72 hours; 1 = not remarkable, 2 and higher increasing severity",1
C[C@@H]1[C@H](O)[C@@H](C)/C=C/C=C/C=C/C=C/C=C/C=C/C=C/[C@H](O[C@@H]2O[C@H](C)[C@@H](O)[C@H](N)[C@@H]2O)C[C@@H]2O[C@](O)(C[C@@H](O)C[C@@H](O)[C@H](O)CC[C@@H](O)C[C@@H](O)CC(=O)O[C@H]1C)C[C@H](O)[C@H]2C(=O)O [amphotericin B],Liver Toxicity Necrosis Classification,72 h; dose 5,no
same,Liver Toxicity Necrosis Classification,72 h; dose 20,no
same,Liver Toxicity Necrosis Classification,AMPB 20; 72 h,no
same,Liver Toxicity Necrosis Classification,compound-dose group at 72 h; dose 5,no
same,Liver Toxicity Necrosis Classification,compound-dose group at 72 h; dose 20,no
same,Liver Toxicity Necrosis Classification,"compound-dosegroup at 72 h, dose 5",no
same,Liver Toxicity Necrosis Classification,"compound-dosegroup at 72 h, dose 20",no
same,Liver Necrosis,"rat, intraperitoneal, dose 5 mg/kg, 72 hours after treatment",No
same,Score (histopathology liver necrosis severity score),"rat, intraperitoneal, dose 5 mg/kg, 72 hours; 1 = not remarkable, 2 and higher increasing severity",1
same,Liver Necrosis,"rat, intraperitoneal, dose 20 mg/kg, 72 hours after treatment",No
same,Score (histopathology liver necrosis severity score),"rat, intraperitoneal, dose 20 mg/kg, 72 hours; 1 = not remarkable, 2 and higher increasing severity",1
Cn1cnc([N+](=O)[O-])c1Sc1ncnc2nc[nH]c12 [azathioprine],Score (histopathology liver necrosis severity score),[1],1
same,Score (histopathology liver necrosis severity score),[2],1
same,Liver Toxicity Necrosis Classification,"rat, in vivo",no
same,Liver Necrosis,"rat, in vivo, ip, 50 mg/kg",No
same,Liver Necrosis,"rat, in vivo, ip, 200 mg/kg",No
CN(C)CCCN1c2ccccc2Sc2ccc(Cl)cc21 [chlorpromazine],Score (histopathology liver necrosis severity score),"Sprague Dawley, rat, in vivo, ip, 8 mg/kg, 72 h",1
same,Score (histopathology liver necrosis severity score),"Sprague Dawley, rat, in vivo, ip, 30 mg/kg, 72 h",1
same,Liver Toxicity Necrosis Classification,"rat, in vivo",no
same,Liver Necrosis,"rat, in vivo, ip, 8 mg/kg",no
same,Liver Necrosis,"rat, in vivo, ip, 30 mg/kg",no
